Data reported in US8916712B2, “Compositions and methods for cytoprotection” (Board of Trustees of the University of Arkansas, priority 2007, dated 2014).
Where two headings read alike, the source gives them in different places.

Experiments:
[1] = Trolox-Equivalent Antioxidant Capacity (TEAC) Assay; conditions: for TEAC value, Chelate / TEAC value, Ligand: relative to Trolox standard assigned TEAC 1.00; for TEAC value, Chelate: zinc chelate of the named ligand
Experimental: The antioxidant capacity of the zinc chelates was measured using the 6-hydroxy-2,5,7,8-tetramethylchroman-2-carboxylic acid (Trolox)-Equivalent Antioxidant Capacity (TEAC) Assay (Randox Laboratories Ltd., Antrim, United Kingdom). […] Antioxidant capacity was measured relative to the Trolox standard, which was assigned a TEAC value of 1.00.

[2] = target: T1, rat serum DNase (predominantly rat DNase I) (Rattus norvegicus, UniProt P21704); assay: Plasmid incision assay of endonuclease activity, rat serum DNase; assay type: biochemical; conditions: 0, 100 or 200 μM; 1 hour at 37° C.; pBR322 plasmid DNA
T1 construct: rat serum DNase (which is predominantly rat DNase I); from tissue; host or cells: rat serum
T1 sequence (P21704 23-284): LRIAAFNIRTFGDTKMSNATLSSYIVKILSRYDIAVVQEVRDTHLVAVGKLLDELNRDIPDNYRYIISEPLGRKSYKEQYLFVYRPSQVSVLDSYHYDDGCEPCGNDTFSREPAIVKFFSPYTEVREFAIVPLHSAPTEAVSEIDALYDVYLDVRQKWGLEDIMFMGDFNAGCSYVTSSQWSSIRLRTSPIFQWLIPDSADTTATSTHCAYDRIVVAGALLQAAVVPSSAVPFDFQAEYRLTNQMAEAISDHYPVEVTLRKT
Experimental: (§1) Endonuclease activity was measured using a plasmid incision assay. Activity was measured in 20 μl samples containing 1 μg pBR322 plasmid DNA, 10 mM Tris-HCl, pH 7.7, 25 μg/ml bovine serum albumin V fraction, 0.5 mM dithiothreitol, 5 mM MgCl2, 2 mM CaCl2, and 2 μl endonuclease. After 1 hour incubation at 37° C., the reaction was stopped by the addition 5 μl 1% SDS, 100 mM EDTA. Digested DNA was then subjected to a 1% agarose gel electrophoresis at 7 V/cm for 1 hour at room temperature. The gel was stained in 0.5 μg/ml ethidium bromide solution for 20 minutes and photographed under […]. Scanning densitometer Fotodyne (Fotodyne Inc., Hartland, Wis.) was utilized to quantify the relative amount of endonuclease-treated plasmid DNA present in a covalently closed circular DNA (cccDNA), open circular DNA (ocDNA) or linear DNA (linDNA). One endonuclease unit was defined as the amount of enzyme required to convert 1 μg cccDNA to ocDNA and linDNA.
(§2) Recombinant DNase I and rat serum DNase (which is predominantly rat DNase I) were incubated with 0, 100, or 200 μM of a Zn^2+-chelate (i.e., Zn-3,5-diisopropylsalicylic acid (DIPS), Zn-gluconate, or Zn-glycinate), a ligand (i.e., DIPS, gluconic acid, or glycine, as negative controls), or ZnCl2 (as positive control).

[3] = target: T2, recombinant human DNase I (Homo sapiens, UniProt P24855); assay: Plasmid incision assay of endonuclease activity, recombinant DNase I; assay type: biochemical; conditions: 0, 100 or 200 μM; 1 hour at 37° C.; pBR322 plasmid DNA
T2 construct: Recombinant DNase I was produced using a similar approach; made in house
T2 sequence (P24855 23-282): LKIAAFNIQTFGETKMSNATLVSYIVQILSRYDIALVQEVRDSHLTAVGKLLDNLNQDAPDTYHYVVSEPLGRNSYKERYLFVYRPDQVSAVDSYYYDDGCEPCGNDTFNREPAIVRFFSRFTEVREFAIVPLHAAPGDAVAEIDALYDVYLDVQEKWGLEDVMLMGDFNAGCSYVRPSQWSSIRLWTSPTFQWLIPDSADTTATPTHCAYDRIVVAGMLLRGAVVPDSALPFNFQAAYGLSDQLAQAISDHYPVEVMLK
Experimental: It was hypothesized that Zn^2+-chelates of aminothiols could provide radioprotection via their direct inhibition of nucleases and their antioxidant properties (i.e., prevent nuclease induction and release). To test this hypothesis, the activity of Zn(II) chelates to inhibit nucleases was assayed in vitro. For this, DNase I and EndoG were cloned, recombinant nuclease were expressed and purified for the in vitro assay. Human and mouse mature EndoG cDNA was reverse transcribed by RT-PCR from either normal human breast epithelial HMEC cells (Clonetics, Walkersville, Md.) or immortalized mouse proximal tubule epithelial TKPTS cells (obtained from D. Elsa Bello-Reuss, University of Texas Medical Branch, Galveston). The plasmid for mature human EndoG (A49-K297) with a C-terminal histidine tag and mouse mature EndoG (A45-K294) with a C-terminal histidine tag were constructed by inserting coding cDNA into pET29b(+) (Novagen, San Diego, Calif.) and expressed in Escherichia coli BL21 (DE3) cells using standard procedures. Expression of the recombinant proteins was induced by IPTG. The expressed recombinant protein was purified by HisTrap FF crude Kit (GE Healthcare, Uppsala, Sweden) and stored in 20 mM Tris-HCl, ph 7.5, 0.5 M NaCl, 2 mM 2-mercaptoethanol, and 50% glycerol.
as §1, §2

[4] = system: U937 human promonocytic cells; conditions: for Radioprotection / cytoprotection: 0-100 μM added immediately after irradiation, PI assay 24 hr
Experimental: To determine the radioprotective effects of Zn^2+-chelates, U937 human promonocytic cells (ATCC number CRL-1593.2) were irradiated with or without Zn^2+-chelates added to the cells before or after irradiation, and radiation-induced cell death was measured 24 hr later using a propidium iodide (PI) assay. Propidium iodide was added to the cells at a final concentration of 4 μM and incubated for 15 minutes. Fluorescence (which indicates dead cells) was measured at 530/645 nm, and fluorescence was measured again after cell lysis with Triton-100 (1%, v/v) for 20 minutes (to give an estimate of total cells). The background (no cells) was subtracted, and the percent of the radiation-induced cell death was computed.
Different concentrations (0-100 μM) of a compound were added to the cells, which were then irradiated with 50 Gy.
Human U937 cells were irradiated in vitro with 50 Gy and the compounds were added at different concentrations (0-100 μM) immediately after irradiation. […] Cell death was measured 24 hr after irradiation using a PI assay (as detailed above).

[5] = system: U937 cells; assay: Comet assay of U937 cells irradiated with 4 Gy; assay type: cell-based, human; conditions: 10 μM, 24 hr after irradiation
Experimental: Considering that the LD50/30 (i.e., the dose that […] in 50% of the animals at 30 days) for mice is approximately 8 Gy (Bichay et al., 1986, Strahlenther Onkol, 162(6):391-399), the 50 Gy dose used to irradiate the cells in the previous example was rather high. Thus, the Zn^2+-chelates were tested for radioprotection against a more physiological dose of radiation. The Zn^2+-chelates tested were Zn-NAC, Zn-captopril, Zn-2-propylthiazolidine-4-carboxylic acid (Zn-PTCA), and Zn-penacillamine. U937 cells were exposed to a Zn^2+-chelate (10 μM), irradiated with 4 Gy, and DNA fragmentation and apoptosis were measured using a single-cell gel electrophoresis assay (also known as Comet assay) 24 hr after irradiation. Alkaline or neutral Comet assays were performed using CometAssay™ kits from Trevigen (Gaithersburg, MC) according to the manufacturer's instructions. The slides were analyzed under an epifluorescense microscope using the Comet assay image analysis software (CometScore; TriTek, Sumerduck, Va.).

[6] = system: U937 cells; assay: Radiation-induced DNA fragmentation in U937 cells, TUNEL assay; assay type: cell-based, human; conditions: added before 50 Gy; TUNEL 24 hr later
Experimental: Female CD-1 mice (n=4) were irradiated with an 8 Gy dose and apoptotic endonuclease-mediated DNA fragmentation was measured in different organs 40 hours after irradiation. For this, tissue sections were subjected to terminal deoxynucleotidyl transferase mediated dUTP nick end labeling (TUNEL) staining with the In Situ Cell Death Detection Kit from Roche Diagnostics (Indianapolis, Ind.). After washing and counterstaining with 4,6-diamidino-2-phenylindole (DAPI) sections were mounted under coverslips using the Antifade kit (Molecular Probes; Eugene, Oreg.) and analyzed under an Axioskop-2 mot plus microscope (Carl Zeiss, Gottingen Germany) with green filter set #31001, red filter set #11010v2 and blue filter set #31000 from Chroma Technology Corp. (Rockingham, Vt.). Images and acquisitions were performed using digital camera AxioCam MRm (Carl Zeiss) and software Axiovision 3.1 (Carl Zeiss).
The ability of the Zn^2+-chelates to inhibit radiation-induced DNA fragmentation was also examined. U937 cells were exposed to amifostine (as a positive control) or Zn^2+—N-acetylcysteine (Zn-NAC), irradiated as described above, and DNA fragmentation and cell death were measured 24 hr later using a TUNEL assay, essentially as described in Example 1.

[7] = system: human U937 cells; assay: Radiation injury of U937 cells (4 Gy), chelates added before or at times after irradiation; assay type: cell-based; conditions: added 30 minutes before, immediately after, or up to 4 hours after irradiation
Experimental: FRTL-5 thyroid cells (ATCC, catalog #CRL8305) were irradiated with 450 Gy without or with Zn^2+-chelates added before and/or after irradiation. […] In another experiment, Zn^2+-chelates (i.e., Zn-captopril, Zn-NAC, Zn-penicillamine, or Zn-PTCA) were added to human U937 cells either 30 minutes before, immediately after, or up to 4 hours after irradiation (4 Gy).

[8] = compound added before 50 Gy, Zn^2+-chelate 1-20 μM, PI assay 24 hr later

[Zn+2] [Unchelated Zn^2+]
Antioxidant activity in TEAC assay [1]: no activity

O=C([O-])[C@H](O)[C@@H](O)[C@H](O)[C@H](O)CO.O=C([O-])[C@H](O)[C@@H](O)[C@H](O)[C@H](O)CO.[Zn+2] [Zn-gluconate]
Inhibition of serum DNase activity [2]: inhibited
Inhibition of DNase I activity [3]: inhibited

Zn—N-(2-mercaptopropionyl)glycine [Zn-MPG]
TEAC value, Chelate [1]: 0.97
Radiation-induced cell death [4, 8]: inhibited

Zn^2+-Cysteamine [Zn-Cysteamine]
TEAC value, Chelate [1]: 0.87
Inhibition of cell death compared with that induced by cysteamine or amifostine ([4]; added before 50 Gy, PI assay): better
Radiation-induced cell death [4, 8]: inhibited

CC(=O)N[C@@H](CS)C(=O)O [NAC, N-Acetylcysteine]
TEAC value, Ligand [1]: 0.88
Radioprotection / cytoprotection ([4]; 50 Gy): not cytoprotective

NCCCNCCSP(=O)(O)O [amifostine, Amifostine]
Visual comets (DNA degradation) [5]: absent
Radiation-induced DNA fragmentation [6]: inhibited
Radiation-induced cell death [4, 8]: inhibition

CC(S)C(=O)NCC(=O)O (stereo not drawn) [MPG, N-(2-mercaptopropionyl)glycine]
TEAC value, Ligand [1]: 0.53

N[C@@H](CS)C(=O)O [Cysteine]
TEAC value, Ligand [1]: 0.43
Radioprotection / cytoprotection ([4]; 50 Gy): not cytoprotective

NCCS [Cysteamine]
TEAC value, Ligand [1]: 0.40
Radiation-induced cell death [4, 8]: inhibition

CC(C)(S)[C@@H](N)C(=O)O [Penicillamine]
Antioxidant activity in TEAC assay [1]: strongest antioxidants
TEAC value, Ligand [1]: 1.54

C[C@H](CS)C(=O)N1CCC[C@H]1C(=O)O [Captopril]
TEAC value, Ligand [1]: 0.90

zinc-captopril [Zn-Captopril]
Protection against radiation injury [7]: protected
TEAC value, Chelate [1]: 0.90

zinc-penicillamine [Zn-Penicillamine]
Protection against radiation injury [7]: protected
Antioxidant activity in TEAC assay [1]: strongest antioxidants
TEAC value, Chelate [1]: 2.05

CC(C)c1cc(C(=O)O)c(O)c(C(C)C)c1 [DIPS, 3,5-diisopropylsalicylic acid]
Inhibition of serum DNase activity [2]: no effect
Inhibition of DNase I activity [3]: no effect

NCC(=O)[O-].NCC(=O)[O-].[Zn+2] [Zn-glycinate]
Inhibition of serum DNase activity [2]: inhibited
Inhibition of DNase I activity [3]: inhibited

O=C(O)[C@H](O)[C@@H](O)[C@H](O)[C@H](O)CO [gluconic acid]
Inhibition of serum DNase activity [2]: no effect
Inhibition of DNase I activity [3]: no effect

Zn^2+-Cysteine [Zn-Cysteine]
TEAC value, Chelate [1]: 0.65
Radiation-induced cell death [4]: inhibited
Radioprotection / cytoprotection ([4]; 50 Gy): significant cytoprotection

[Cl-].[Cl-].[Zn+2] [ZnCl2]
Inhibition of serum DNase activity [2]: inhibition
Inhibition of DNase I activity [3]: inhibition
Radioprotection / cytoprotection ([4]; 50 Gy): did not provide any radioprotection
Cytotoxicity ([4]; U937 cells, 0-100 μM, 50 Gy): rather cytotoxic

CCCC1NC(C(=O)O)CS1.[Zn] (stereo not drawn) [Zn-PTCA, zinc-2-n-propylthiazolidine-4-carboxylic acid]
Protection against radiation injury [7]: protected

NCC(=O)O [glycine]
Inhibition of serum DNase activity [2]: no effect
Inhibition of DNase I activity [3]: no effect
